# Columns and labels:
# A549 cells = assay: Cell Counts (Trypan Blue); assay type: cell-based; conditions: 48 hrs; ritanserin 10 μM
# Description: (§1) Cell Counts. Tumor cells were plated in 60 mm plates at a density of 100.000 cells/mL (A549. H1650) or 200,000 cells/mL (H82) and a volume of 3.5 mL/plate. Cells were treated with inhibitors at the indicated concentrations (final DMSO concentration of 0.5%) for 48 hrs at 37° C. under 5% CO2. After incubation, adherent cells were washed and detached with trypsin and all cells were collected and concentrated by spinning at 400×g for 3 min followed by aspiration of media. Cells were resuspended in […] Trypan Blue and 10 μL of this solution counted via a hemocytometer. Dead cells were excluded from all counts. Data were normalized to DMSO-treated wells and significance values determined with one-way ANOVA.
# H1650 cells = assay: Cell Counts (Trypan Blue); assay type: cell-based; conditions: 48 hrs; ritanserin 10 μM
# Description: as §1
# H82 cells = assay: Cell Counts (Trypan Blue); assay type: cell-based; conditions: 48 hrs; ritanserin 10 μM
# Description: as §1
# CRAF = target: T1, CRAF (Homo sapiens, UniProt P04049); assay: ATP acyl phosphate chemical proteomics in lung cancer cell proteomes; assay type: binding; conditions: for CRAF ATP acyl-phosphate labeling response (words, FIG. 20): H82 and HEK293T lysates, 100 μM Rit, 1 mM RF001
# T1 construct: measure selectivity of compounds against native kinases detected in lung cancer proteomes; endogenous in cells; host or cells: H82 small cell lung cancer (and HEK293T) cell lysates; CRAF not detected in A549
# T1 sequence (P04049 whole entry): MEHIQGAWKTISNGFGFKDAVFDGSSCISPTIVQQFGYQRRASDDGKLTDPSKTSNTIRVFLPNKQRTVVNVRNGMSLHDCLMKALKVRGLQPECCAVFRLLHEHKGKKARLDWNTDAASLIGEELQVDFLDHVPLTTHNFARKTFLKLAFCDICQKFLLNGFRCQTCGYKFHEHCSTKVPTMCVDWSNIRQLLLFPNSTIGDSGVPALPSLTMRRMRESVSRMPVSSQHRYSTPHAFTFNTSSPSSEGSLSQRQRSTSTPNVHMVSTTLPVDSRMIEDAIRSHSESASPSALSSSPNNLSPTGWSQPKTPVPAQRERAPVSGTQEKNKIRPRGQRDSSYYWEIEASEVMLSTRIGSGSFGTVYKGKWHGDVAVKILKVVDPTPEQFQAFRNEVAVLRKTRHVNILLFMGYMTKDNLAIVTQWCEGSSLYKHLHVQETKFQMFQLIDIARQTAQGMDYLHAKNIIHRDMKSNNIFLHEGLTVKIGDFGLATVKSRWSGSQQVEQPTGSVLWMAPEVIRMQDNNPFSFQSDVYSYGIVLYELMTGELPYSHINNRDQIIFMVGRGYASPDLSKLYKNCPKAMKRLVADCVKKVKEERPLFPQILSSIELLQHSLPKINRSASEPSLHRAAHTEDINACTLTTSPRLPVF
# Description: LC-MS analysis of SILAC samples using ATP acyl phosphates. Quantitative chemoproteomics was performed as previously described (Franks et al., 2017; McCloud et al., 2018).
# Computational Methods. Data for A549 and H82 cell lines were searched with IP2 and manually validated using the methods previously described (Franks et al., 2017). Data for Desthiobiotin-tagged ATP acyl-phosphate probes and ATP competitive peptides were compared and clustered. Ritanserin and ketanserin inhibition profiles were compared using SILAC ratios and normalized to DMSO.
# Based on previous chemical proteomics (Franks, 2017), it was hypothesized that ritanserin is functioning as a kinase inhibitor to mediate cytotoxicity in the lung cancer cell models. […] For these studies, NSCLC and SCLC cells were cultured in isotopically light and heavy amino acids to enable quantitative chemical proteomics (Chang. 2015) by stable isotope labeling with amino acids in cell culture (SILAC, FIG. 17A). […] After probe labeling, light and heavy proteomes were combined, digested with trypsin protease, and desthiobiotin-modified peptides enriched by avidin affinity chromatography and analyzed by LC-MS/MS to identify and quantify isotopically tagged active-site peptides from native kinases as previously described(Franks, 2017) (FIG. 17A).
# To further confirm that ritanserin is a CRAF inhibitor, a targeted parallel reaction monitoring method (PRM) was developed to evaluate compound activity against CRAF and other members of the RAF family (ARAF and BRAF). Targeted PRM was needed because of the low abundance of CRAF compared with ARAF and BRAF). […] Ritanserin activity was also measured against RAF kinases in A549 proteomes using the targeted LC-MS method. […] The data further support previous findings that this RAF member is enriched in SCLC cells (REF).
SMILES,cell killing (live cell counts) (A549 cells),cell killing (live cell counts) (H1650 cells),cell killing (live cell counts) (H82 cells),"CRAF ATP acyl-phosphate labeling response (words, FIG. 20) (CRAF)","kinase target by SILAC ratio criterion (CRAF; 100 μM, A549 and H82 proteomes)",activity by targeted PRM (CRAF; H82 proteomes)
O=C(c1ccc(F)cc1)C1CCN(CCn2c(=O)[nH]c3ccccc3c2=O)CC1 [Ketanserin],not ketanserin,not ketanserin,not ketanserin,,,
"Fc1ccc(C(=C2CCNCC2)c2ccc(F)cc2)cc1 [RF001, 4-(Bis(4-fluorophenyl)methylene) piperidine]",,,,inactivates CRAF,,
Cc1nc2sccn2c(=O)c1CCN1CCC(=C(c2ccc(F)cc2)c2ccc(F)cc2)CC1 [Ritanserin],~70%,~70%,~70%,inactivates CRAF,most potent targets,potent activity against CRAF
